Data: US10168338B2, “Methods of identifying modulators of sestrin-gator-2 interaction for modulating mTORC1 activity” (Whitehead Institute for Biomedical Research, priority 2014, dated 2019)
Each block holds one molecule with its values, some of them ahead of it.

How the values were obtained:
[1] = target: T1, Sestrin-GATOR2 interaction (Homo sapiens, UniProt P58004); assay: Effect of specific amino acids on Sestrin-GATOR2 interaction (FLAG-WDR24 immunoprecipitation, immunoblot); assay type: cell-based; conditions: HEK-293T stably expressing FLAG-WDR24; starvation/restimulation, pre- or post-lysis addition, washes of immunoprecipitates
T1 construct: To isolate the FLAG-WDR24/endogenous-Sestrin2 complex; endogenous in cells; host or cells: HEK-293T cells stably expressing FLAG-WDR24; Sestrin2 and the other GATOR2 subunits are endogenous
T1 sequence (P58004 1-480): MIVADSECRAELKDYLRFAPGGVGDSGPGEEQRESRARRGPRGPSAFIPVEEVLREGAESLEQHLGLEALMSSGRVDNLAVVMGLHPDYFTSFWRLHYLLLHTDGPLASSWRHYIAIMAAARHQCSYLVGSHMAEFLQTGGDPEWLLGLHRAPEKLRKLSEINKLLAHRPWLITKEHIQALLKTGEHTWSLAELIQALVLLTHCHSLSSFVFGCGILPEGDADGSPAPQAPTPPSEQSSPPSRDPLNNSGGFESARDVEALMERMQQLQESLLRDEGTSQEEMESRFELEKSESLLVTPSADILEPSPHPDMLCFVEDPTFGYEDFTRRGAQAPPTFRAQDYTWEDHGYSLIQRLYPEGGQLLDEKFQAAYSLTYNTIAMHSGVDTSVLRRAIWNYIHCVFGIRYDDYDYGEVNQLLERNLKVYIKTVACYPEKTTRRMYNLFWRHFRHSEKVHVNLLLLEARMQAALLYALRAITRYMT
Method: In order to further explore if specific amino acid levels affected the Sestrin-GATOR2 interaction, HEK-293T cells stably expressing the FLAG-tagged GATOR2 component WDR24 (and FLAG-tagged metap2 as a control) were starved of either all amino acids (ALL); only leucine, arginine, and lysine (LRK); only leucine (L); only arginine (R); or only lysine (K) for 50 minutes, or starved for 50 minutes and restimulated for 10 minutes with the indicated amino acids.
HEK-293T cells stably expressing the FLAG-tagged GATOR2 component WDR24 were starved of all amino acids for 50 minutes. Individual amino acids were added pre-lysis to the cell culture media or post-lysis to cell lysates prior to FLAG immunoprecipitation.
Finally, HEK-293T cells stably expressing the FLAG-tagged GATOR2 component WDR24 were starved of all amino acids for 50 minutes. Immunoprecipitates were subjected to washes containing the indicated amounts of leucine or arginine and analyzed along with cell lysates by immunoblotting for the indicated proteins as shown in FIG. 8C.

[2] = target: T2, GATOR2-Sestrin2 interaction (Homo sapiens, UniProt P58004); assay: Sestrin2-GATOR2 interaction in HEK-293T cells after starvation/restimulation (co-immunoprecipitation); assay type: cell-based
T2 construct: To isolate the FLAG-WDR24/endogenous-Sestrin2 complex; endogenous in cells; host or cells: HEK-293T cells stably expressing FLAG-WDR24; Sestrin2 and the other GATOR2 subunits are endogenous
T2 sequence (P58004 1-480): T1 sequence (P58004 1-480)
Method: (§1) In order to determine the effect of amino acids on the GATOR2-Sestrin interaction, transfected cells were incubated in amino acid free RPMI for 50 minutes and then stimulated with amino acids for 10 minutes. For glucose starvation, cells were incubated in RPMI media lacking glucose but containing amino acids and dialyzed serum for 50 minutes, followed by a 10 minute restimulation with 5 mM D-Glucose. For insulin deprivation, cells were incubated in RPMI without serum for 50 minutes and restimulated with 1 μg/ml insulin for 10 minutes. Finally, when Torin1 or Rapamycin was used, cells were incubated with 250 nM of each throughout the starvation and restimulation period.
HEK-293T cells stably expressing FLAG-WDR24 or the control protein FLAG-metap2 (as described in Example 1) were starved for leucine, arginine, or all amino acids for 50 minutes. In some samples, cells were re-stimulated with leucine, arginine, or all amino acids for 10 minutes and then FLAG immunoprecipitates prepared from cell lysates. Immunoprecipitates and lysates were analyzed by immunoblotting for indicated proteins. Removal of either leucine or arginine from the cell media inhibited mTORC1 signaling, as indicated by S6K1 phosphorylation, to similar extents. Strikingly, however, only leucine starvation caused Sestrin2 to bind to GATOR2 inducing the interaction as effectively as complete amino acid starvation (FIG. 9A). […] Leucine starvation and stimulation also strongly regulated the interaction of endogenous Sestrin1, but not endogenous Sestrin3, with GATOR2 (Figure not shown).

[3] = test system: mTORC1; assay: mTORC1 signaling in HEK-293T cells (S6K1 phosphorylation immunoblot); assay type: cell-based, human; conditions: v-ATPase inhibition
Method: Immunoprecipitated proteins were denatured by the addition of 50 μl of sample buffer and boiling for 5 minutes as described (Kim et al., 2002), resolved by 8%-16% SDS-PAGE, and analyzed by immunoblotting using the appropriate antibody (antibodies to phospho-T389 S6K1, S6K1, Sestrin2, mTOR, Mios and FLAG all obtained from Cell Signaling Technology; antibodies to WDR24 and WDR59 were generously provided by Jianxin Xie at Cell Signaling Technology).
as §1

[4] = target: T3, Sestrin2-GATOR2 complex (Homo sapiens, UniProt P58004); assay: Amino acids added directly to immunopurified Sestrin2-GATOR2 complexes (immunoblot); assay type: binding; conditions: for effect on the Sestrin2-GATOR2 interaction in vitro: 300 μM each, added directly to FLAG immunoprecipitates; for concentration acting on Sestrin2-GATOR2 complex, fold greater than leucine: added to purified complexes, relative to leucine
T3 construct: To isolate the FLAG-WDR24/endogenous-Sestrin2 complex; endogenous in cells; host or cells: HEK-293T cells stably expressing FLAG-WDR24; Sestrin2 and the other GATOR2 subunits are endogenous
T3 sequence (P58004 1-480): T1 sequence (P58004 1-480)
Method: We next tested if leucine acts directly on the Sestrin2-GATOR2 complex.
HEK-293T cells stably expressing FLAG-WDR24 were starved for all amino acids for 50 minutes, lysed and subjected to anti-FLAG immunoprecipitation as described previously. The GATOR2-Sestrin2 complexes immobilized on the agarose beads were washed twice in lysis buffer with 500 mM NaCl, as previously described, and then incubated for 10 minutes in 1 mL of cytosolic buffer with the indicated concentrations of individual amino acids. The amount of GATOR2 and Sestrin2 that remained bound was assayed by SDS-PAGE and immunoblotting as described previously.

[5] = target: T4, Sestrin2 (Homo sapiens, UniProt P58004); assay: [3H]-labeled amino acid binding to FLAG-Sestrin2 immunoprecipitated from HEK-293T cells; conditions: for Ki: 10 μM 3H-leucine, three experiments, read-out: inhibitory constant (Ki) for competing leucine binding to Sestrin2; for affinity for Sestrin2, times lower than the affinity of leucine: relative to leucine Kd
T4 construct: expressed in transfected cells; host or cells: HEK-293T, transient transfection of a pRK5-based cDNA plasmid, anti-FLAG immunoprecipitation
T4 sequence (P58004 1-480): T1 sequence (P58004 1-480)
Method: Four million HEK-293T cells were plated in a 15 cm plate four days prior to the experiment. Each plate yielded the protein for one sample. Forty-eight hours after plating, the cells were transfected via the polyethylenimine method (O. Boussif et al., PNAS (USA), 92:7297-7301 (1995)) with the pRK5-based cDNA expression plasmids indicated in the figures in the following amounts: 5 μgFLAG-Sestrin2; 12 μg of the negative control Rap2A; 5 μg WDR24; 2 μg WDR24 with 4 μg each of HA-Seh1L, HA-Sec13, HA-Mios, and HA-WDR59; 12 […] (CG11299-PD); 12 μgFLAG-Sestrin1.1; 12 μg FLAG-Sestrin1.2; 12 μg FLAG-Sestrin3; 12 μg FLAG-Sestrin2 mutants (L261A, E451A, S190A) and up to 20 μg total DNA with empty-PRK5. Forty-eight hours after transfection cells were lysed as described in Example 1. If multiple samples of the same type were represented in the experiment, the cell lysates were combined, mixed, and evenly distributed amongst the relevant tubes, to ensure equal protein amounts across samples of the same type.
Anti-FLAG immunoprecipitates were prepared as previously described, with the exception that, prior to incubation with lysates, the beads were blocked by rotating in 1 μg/μl bovine serum albumin (BSA) for 20 minutes at 4° C. and subsequently washed twice in lysis buffer. Thirty μl of the 50/50 slurry of beads in lysis buffer was added to each of the clarified cell lysates and incubated as previously described in Example 1.
For the binding assays, two tubes at a time were washed as previously indicated for immunoprecipitations. All the liquid was subsequently aspirated and a 15 μl aliquot of proteins bound to the beads was incubated for one hour on ice in cytosolic buffer (0.1% Triton, 40 mM HEPES pH 7.4, 10 mM NaCl, 150 mM KCl, 2.5 mM MgCl2) with the appropriate amount of [^3H]-labeled amino acids and unlabeled amino acids. Tubes were flicked every five minutes. At the end of one hour, the beads were briefly spun down, aspirated dry, and rapidly washed three times with binding wash buffer (0.1% Triton, 40 mM HEPES pH 7.4, 150 mM NaCl). The beads were aspirated dry again and resuspended in 85 μl of binding wash buffer. With a cut tip, each sample was mixed well and three 10 μl aliquots were separately quantified using a TriCarb® scintillation counter (PerkinElmer). This process was repeated in pairs for each sample, to ensure similar incubation and wash times for all samples analyzed across different experiments.
Amino acid affinities to Sestrin2 were determined by first normalizing the bound [^3H]-labeled amino acid concentrations across three separate binding assays performed with varying amounts of unlabeled amino acid competition. These values were plotted and fit to a hyperbolic equation ([…]) to estimate the IC50 value. Kd or Ki values were derived from the IC50 value using the equation: Kd or Ki=IC50/(1+([[^3H]Leucine])/Kd).

Molecule: NCCCC[C@H](N)C(=O)O [lysine]
disruption of the Sestrin-GATOR2 interaction [1]: but not arginine or lysine, disrupts the Sestrin-GATOR2 interaction

Molecule: C/C=C/[C@H]1O[C@@](O)([C@@H](C)[C@H](O)[C@H](C)[C@H]2OC(=O)/C(OC)=C/C(C)=C/[C@@H](C)[C@@H](O)[C@@H](CC)[C@@H](O)[C@H](C)C/C(C)=C/C=C/[C@@H]2OC)C[C@@H](O[C@H]2C[C@@H](O)[C@H](OC(N)=O)[C@@H](C)O2)[C@@H]1C [concanamycin A]
effect on the interaction between Sestrin2 and GATOR2 ([2]; in the absence of amino acids): reduced the interaction between Sestrin2 and GATOR2
effect on mTORC1 signaling [3]: decreased mTORC1 signaling

Molecule: CC(C)[C@H](N)C(=O)O [valine]
effect on the Sestrin2-GATOR2 interaction in vitro [4]: had any effect on the Sestrin2-GATOR2 interaction

Molecule: N=C(N)NCCC[C@H](N)C(=O)O [arginine]
disruption of the Sestrin-GATOR2 interaction [1]: but not arginine or lysine, disrupts the Sestrin-GATOR2 interaction
binding of radiolabeled amino acid to Sestrin2 ([5]; FLAG-Sestrin2 from HEK-293T, competed by excess unlabeled leucine): did not bind

concentration acting on Sestrin2-GATOR2 complex, fold greater than leucine [4]: approximately 10 fold
Ki [5]: 354 ± 118 µM
affinity for Sestrin2, times lower than the affinity of leucine [5]: approximately 18 times
Molecule: CSCC[C@H](N)C(=O)O [methionine]
effect on the Sestrin2-GATOR2 interaction in vitro [4]: had any effect on the Sestrin2-GATOR2 interaction

Molecule: insulin
regulation of the Sestrin2-GATOR2 interaction by insulin treatment ([2]; serum-free 50 minutes, 1 μg/ml insulin 10 minutes): did not regulate the Sestrin2-GATOR2 interaction

concentration acting on Sestrin2-GATOR2 complex, fold greater than leucine [4]: ~25 fold
Ki [5]: 616 ± 273 µM
affinity for Sestrin2, times lower than the affinity of leucine [5]: ~30 times
Molecule: CC[C@H](C)[C@H](N)C(=O)O [isoleucine]
effect on the Sestrin2-GATOR2 interaction in vitro [4]: had any effect on the Sestrin2-GATOR2 interaction

Molecule: CCC(=O)N1CCN(c2ccc(-n3c(=O)ccc4cnc5ccc(-c6cnc7ccccc7c6)cc5c43)cc2C(F)(F)F)CC1 [Torin1]
effect of pretreatment on the amino acid-induced decrease in the GATOR2-Sestrin2 interaction ([2]; 250 nM throughout starvation and restimulation): did not prevent the amino acid-induced decrease in the GATOR2-Sestrin2 interaction
